Consider two compounds from PMC6315005, “5F-Cumyl-PINACA in ‘e-liquids’ for electronic cigarettes: comprehensive characterization of a new type of synthetic cannabinoid in a trendy product including investigations on the in vitro and in vivo phase I metabolism of 5F-Cumyl-PINACA and its non-fluorinated analog Cumyl-PINACA” (Forensic Toxicology, 2018).

The target of one data set is T1, CB1 (Homo sapiens, UniProt P21554).
T1 construct: purchased DiscoveRx (Fremont, CA, USA)
The data set is described as follows: cAMP biosensor assay with CB1 as target (DiscoveRx). In kind it is cell-based. The protocol:
Each compound was tested in duplicates; to induce response, 20 µM forskolin was used.

The nature of data set [1]: Self-administration study, serum concentrations of Cumyl-PINACA (LC-MS/MS). Particulars: 0.6 mg oral, one volunteer. The format is in vivo, human. An excerpt: For analysis of the serum samples, a routinely used LC–MS/MS screening method, currently covering 94 compounds with at least two ion transitions for each analyte and one ion transition for each internal standard in positive scheduled multiple reaction monitoring (+sMRM) was applied. Briefly, a QTRAP™ 4000 triple quadrupole linear ion trap instrument (Sciex, Darmstadt, Germany) equipped with a TurbolonSpray® interface and coupled to a Shimadzu Prominence HPLC system consisting of two LC-20 AD SP isocratic pumps, SIL 20 AC autosampler, CTO-20A controller (Shimadzu, Duisburg, Germany) and Analyst® software version 1.6.2 were used (Sciex). […] The total flow rate was 0.5 mL/min. The autosampler and the column oven temperatures were set to 10 and 40 °C, respectively. The monitored ion transitions used for Cumyl-PINACA were m/z 350→215 and 350→232.
To investigate the in vivo phase I metabolism of Cumyl-PINACA, one of the authors (75 kg person) ingested 0.6 mg Cumyl-PINACA orally. In addition to blank samples taken prior to ingestion, serum and urine samples were collected repeatedly over periods of 17 and 31 h after ingestion, respectively. All samples were stored at − 20 °C until analysis. In Germany, approval by an ethics committee is not required for scientific self-experiments.
A 1-mL aliquot of a serum sample was spiked with 10 µL of an internal standard solution mixture (25 ng/mL each, ADBICA-d9, AKB48-d9, JWH-007-d9, JWH-015-d7, JWH-018-d11, JWH-073-d9, JWH-081-d9, JWH-122-d9, JWH-200-d5, JWH-210-d9, JWH-250-d5, JWH-398-d9, MAM-2201-d5, PB-22-d9, RCS-4-d9, UR-144-d5, XLR-11-d5). A 0.5-mL volume carbonate buffer (pH 10) and 1.5 mL of extraction mixture 1 (n-hexane/ ethyl acetate, 99:1, v/v) were added. After gentle mixing for 5 min, the sample was centrifuged and 1 mL of the supernatant was transferred to an HPLC vial. Subsequently, 1.5 mL of extraction mixture 2 (n-hexane/ethyl acetate, 80:20, v/v) was added to the residue, and the mixing and centrifugation steps were repeated. A 1-mL volume of the supernatant was added to the same HPLC vial, and after evaporation under a gentle stream of nitrogen at 40 °C and reconstitution in 100 µL of mobile phase (A/B, 80:20, v/v), the sample was analyzed using LC–MS/MS.

Data set [2] is described as follows: Self-administration study, phase I metabolites of Cumyl-PINACA in urine (LC-MS/MS). Particulars: 0.6 mg Cumyl-PINACA oral. In kind it is in vivo, human.
The subject of a further data set is CB1 receptors. Details: method as in PMID 28792725. The note with it: mouse AtT-20 neuroblastoma cells, membrane potential; cited from earlier work.
For a further data set, the system named is CB2 receptors. Details: method as in PMID 28792725. The note with it: mouse AtT-20 neuroblastoma cells, membrane potential; cited from earlier work.
A further data set has as its system CB1 receptor. Details: method as in PMID 29367862. The note with it: [35S]GTPγS binding; cited from earlier work. Background: GTPγS resists hydrolysis and so accumulates on activated G proteins.
The subject of another data set is CB2 receptor. Details: method as in PMID 29367862. Particulars: [35S]GTPγS binding; cited from earlier work.
The nature of data set [3]: Authentic urine sample, phase I metabolites of 5F-Cumyl-PINACA (LC-MS/MS). The format is in vivo, human. The protocol:
The LC–MS/MS system used for the analysis of the urine and the pHLM assay samples consisted of a Nexera X2 UHPLC (Shimadzu) coupled to a QTRAP™ 5500 triple quadrupole linear ion trap instrument (SCIEX) equipped with the TurboIonSpray® probe. […] The total flow rate was 0.4 mL/min. The autosampler and the column oven temperatures were set to 10 and 40 °C, respectively.
The MRM ion transitions of the parent compounds were optimized carefully in positive ionization mode (see Supplementary Tables S1 and S2). Enhanced product ion (EPI) scan experiments were performed using hypothetical masses of anticipated phase I metabolites, and the obtained spectra were compared to the EPI spectrum of the respective parent compound. In order to detect unexpected metabolites not covered by the EPI scan approach, precursor ion scan experiments for the characteristic fragment ion at m/z 145 and for the m/z of its modified analogs 161 (monohydroxylation), 177 (dihydroxylation) and 179 (dihydrodiol) were conducted. The relative abundances of the characterized metabolites in the urine samples obtained during the self-administration study were compared using an MRM method comprising the most abundant ion transitions of each metabolite (see Supplementary Fig. S1 and Table S3).
The analysis of in vivo metabolism of 5F-Cumyl-PINACA in an authentic urine sample was conducted in accordance with the client’s inquest.
In order to cleave conjugates, 0.5 mL of an urine sample was incubated at 45 °C for 1 h after addition of 0.5 mL phosphate buffer (pH 6) and 30 µL β-glucuronidase. In a next step, 1.5 mL acetonitrile and 0.5 mL ammonium formate ([…]) were added. After shaking and centrifugation, 1 mL of the acetonitrile phase was transferred into a glass vial and evaporated to dryness under a gentle nitrogen stream at 40 °C. The residue was reconstituted in 200 µL mobile phase A/B (50:50, v/v) directly before LC–MS/MS analysis. Blank urine samples were prepared serving as negative controls.

pEC50: −log10 of the molar value. Entries after “also recorded” stand apart in the source; their conditions may differ.

T1 sequence (P21554 whole entry): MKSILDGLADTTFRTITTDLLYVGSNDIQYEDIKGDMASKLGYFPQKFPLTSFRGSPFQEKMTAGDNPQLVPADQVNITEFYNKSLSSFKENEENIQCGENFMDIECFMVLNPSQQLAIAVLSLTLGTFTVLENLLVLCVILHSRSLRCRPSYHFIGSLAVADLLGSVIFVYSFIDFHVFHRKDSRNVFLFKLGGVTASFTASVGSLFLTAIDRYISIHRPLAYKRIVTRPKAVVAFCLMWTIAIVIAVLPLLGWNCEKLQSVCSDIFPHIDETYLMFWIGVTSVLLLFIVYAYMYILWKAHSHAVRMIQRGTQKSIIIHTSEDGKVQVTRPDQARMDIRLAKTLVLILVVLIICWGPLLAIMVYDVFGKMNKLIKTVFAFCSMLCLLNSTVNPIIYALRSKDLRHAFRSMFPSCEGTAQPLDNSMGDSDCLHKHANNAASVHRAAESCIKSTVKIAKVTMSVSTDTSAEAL

A word on the pEC50: it is the negative decadic logarithm of the EC50, by convention in mol/L. Low readings indicate a large EC50, high ones a small EC50. Take `CCCCCn1nc(C(=O)NC(C)(C)c2ccccc2)c2ccccc21` [Cumyl-PINACA, 1-pentyl-N-(2-phenylpropan-2-yl)-1H-indazole-3-carboxamide]: on CB1, the pEC50 was 10.22 and the “relative potency among the tested substances” value was “most potent SC among the tested compounds; also recorded: most potent substance in this assay”. This compound also had a Curve top at CB1 (agonist format, 20 µM forskolin) of 93.7. Also, on CB1 (control ligand CP-55,940, read-out: Maximum response (compared to CP-55,940)), the Emax stood at 92.9%. Moreover, in data set [1], the drug-related symptoms result is “did not experience any drug-related symptoms”, the “maximum concentration measured in serum” value is 0.1 ng/mL and the “period of detection in serum” value is reported as “about 17 h”. Besides, the Tmax in data set [1] (human, serum, read-out: time of maximum serum concentration after ingestion) was 6 h. The “detection of parent compound in urine” value in data set [2] is on record as “not detected in urine”. Further, in the data set with CB1 receptors, the “potency of CB1 receptor activation compared to CP-55,940” value is listed as “greater potency than CP-55,940”. The “potency of CB2 receptor activation compared to CP-55,940” value in the data set with CB2 receptors is given as “greater potency than CP-55,940”. Further, the “CB1 activity compared to CP-55,940” value in the data set on CB1 receptor is given as “less activities as compared to CP-55,940”. For the same compound, the “CB2 activity compared to CP-55,940” value with CB2 receptor is “less activities as compared to CP-55,940”.
Regarding `CC(C)(NC(=O)c1nn(CCCCCF)c2ccccc12)c1ccccc1` [5F-Cumyl-PINACA, 1-(5-fluoropentyl)-N-(2-phenylpropan-2-yl)-1H-indazole-3-carboxamide], the “detection of parent compound in urine” value in data set [3] is on record as “not detected”. In the data set on CB1 receptors, the “potency of CB1 receptor activation compared to CP-55,940” value is on record as “greater potency than CP-55,940”. The “potency of CB2 receptor activation compared to CP-55,940” value with CB2 receptors is recorded as “greater potency than CP-55,940”. For the same compound, the “CB1 activity compared to CP-55,940” value with CB1 receptor was “less activities as compared to CP-55,940”. The “CB2 activity compared to CP-55,940” value in the data set on CB2 receptor was “less activities as compared to CP-55,940”.
